Results on three compounds are retold here after ChEMBL document CHEMBL3352475, “Novel dammarane saponins from Gynostemma pentaphyllum and their cytotoxic activities against HepG2 cells” (Bioorg Med Chem Lett, 2014).

Broadly, the IC50 is the midpoint of a concentration-inhibition curve. High values mean lower potency, low ones higher potency.

Values after ≈ are worked out from the molar mass of the structure shown.

The experiment concerns HepG2. Kind of experiment: Cytotoxicity against human HepG2 cells after 24 hrs by CCK-8 assay. To be noted: HepG2, 24 h. The class given is functional, cell-based. For orientation: Tetrazolium assays rely on reduction of a dye to a coloured formazan, in cell work by metabolically active cells.
On to `CC(=O)OC[C@H]1O[C@@H](O[C@H]2[C@H](O[C@H]3[C@H](O)C[C@]4(C)[C@H]5C[C@@H](O)[C@@H]6[C@@H](/C(C)=C\CC=C(C)C)CC[C@@]6(C)[C@]5(C)CC[C@H]4C3(C)C)O[C@H](CO)[C@@H](O)[C@@H]2O)[C@H](O)[C@@H](O)[C@@H]1O`, for which the IC50 turned out to be 40 µg/mL (≈ 48.5 µM). Take `C=C(CCC=C(C)C)[C@H]1CC[C@]2(C)[C@@H]1[C@H](O)C[C@@H]1[C@@]3(C)C[C@@H](O)[C@H](O[C@@H]4O[C@H](CO)[C@@H](O)[C@H](O)[C@H]4O[C@@H]4O[C@H](COC(C)=O)[C@@H](O)[C@H](O)[C@H]4O)C(C)(C)[C@@H]3CC[C@]12C`: the IC50 is 38 µg/mL (≈ 46.1 µM). This IC50 and that of the compound before are within 1.5-fold of each other. The value for `CC(C)=CCC[C@](C)(O)[C@H]1CC[C@]2(C)[C@@H]1[C@H](O)C[C@@H]1[C@@]3(C)CC[C@H](O[C@@H]4O[C@H](CO)[C@@H](O)[C@H](O)[C@H]4O[C@@H]4O[C@H](CO)[C@@H](O)[C@H](O)[C@H]4O)C(C)(C)[C@@H]3CC[C@]12C` was 54 µg/mL (≈ 68.8 µM).
